From patent US20060045953A1 (priority 2004, published 2006)

The compounds below were run against T1, hT1R2/hT1R3 sweet receptor (Homo sapiens, UniProt Q7RTX0+Q8TE23) (assay: In vitro hT1R2/hT1R3 sweet taste receptor activation assay (FLIPR, dose response)). Details: Table E, Sweet Enhancer Amides; read-out: Sweet EC50.
T1 construct: expressed in transfected cells; host or cells: HEK293 derivative stably expressing Gα15, clone S-9
T1 sequence (Q8TE23 20-839): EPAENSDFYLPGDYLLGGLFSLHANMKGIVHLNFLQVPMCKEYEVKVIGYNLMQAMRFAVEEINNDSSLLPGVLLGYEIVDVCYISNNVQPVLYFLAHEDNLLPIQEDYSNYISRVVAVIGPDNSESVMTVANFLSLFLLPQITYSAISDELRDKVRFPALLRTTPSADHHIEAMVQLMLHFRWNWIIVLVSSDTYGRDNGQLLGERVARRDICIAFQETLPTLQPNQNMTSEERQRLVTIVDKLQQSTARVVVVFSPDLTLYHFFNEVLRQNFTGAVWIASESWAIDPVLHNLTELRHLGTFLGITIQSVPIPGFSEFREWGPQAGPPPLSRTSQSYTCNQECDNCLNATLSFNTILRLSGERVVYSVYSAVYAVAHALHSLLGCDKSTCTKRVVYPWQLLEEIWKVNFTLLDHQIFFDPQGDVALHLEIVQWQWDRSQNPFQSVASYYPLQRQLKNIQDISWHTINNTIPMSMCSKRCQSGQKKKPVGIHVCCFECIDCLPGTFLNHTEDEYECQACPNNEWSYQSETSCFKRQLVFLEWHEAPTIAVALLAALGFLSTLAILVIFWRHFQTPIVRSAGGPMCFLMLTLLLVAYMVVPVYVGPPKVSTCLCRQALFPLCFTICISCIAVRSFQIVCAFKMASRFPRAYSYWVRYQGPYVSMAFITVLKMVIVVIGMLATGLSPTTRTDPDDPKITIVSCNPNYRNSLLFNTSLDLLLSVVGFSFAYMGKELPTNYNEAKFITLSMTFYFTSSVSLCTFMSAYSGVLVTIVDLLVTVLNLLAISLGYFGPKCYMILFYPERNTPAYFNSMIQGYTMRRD
T1 sequence (Q7RTX0 21-852): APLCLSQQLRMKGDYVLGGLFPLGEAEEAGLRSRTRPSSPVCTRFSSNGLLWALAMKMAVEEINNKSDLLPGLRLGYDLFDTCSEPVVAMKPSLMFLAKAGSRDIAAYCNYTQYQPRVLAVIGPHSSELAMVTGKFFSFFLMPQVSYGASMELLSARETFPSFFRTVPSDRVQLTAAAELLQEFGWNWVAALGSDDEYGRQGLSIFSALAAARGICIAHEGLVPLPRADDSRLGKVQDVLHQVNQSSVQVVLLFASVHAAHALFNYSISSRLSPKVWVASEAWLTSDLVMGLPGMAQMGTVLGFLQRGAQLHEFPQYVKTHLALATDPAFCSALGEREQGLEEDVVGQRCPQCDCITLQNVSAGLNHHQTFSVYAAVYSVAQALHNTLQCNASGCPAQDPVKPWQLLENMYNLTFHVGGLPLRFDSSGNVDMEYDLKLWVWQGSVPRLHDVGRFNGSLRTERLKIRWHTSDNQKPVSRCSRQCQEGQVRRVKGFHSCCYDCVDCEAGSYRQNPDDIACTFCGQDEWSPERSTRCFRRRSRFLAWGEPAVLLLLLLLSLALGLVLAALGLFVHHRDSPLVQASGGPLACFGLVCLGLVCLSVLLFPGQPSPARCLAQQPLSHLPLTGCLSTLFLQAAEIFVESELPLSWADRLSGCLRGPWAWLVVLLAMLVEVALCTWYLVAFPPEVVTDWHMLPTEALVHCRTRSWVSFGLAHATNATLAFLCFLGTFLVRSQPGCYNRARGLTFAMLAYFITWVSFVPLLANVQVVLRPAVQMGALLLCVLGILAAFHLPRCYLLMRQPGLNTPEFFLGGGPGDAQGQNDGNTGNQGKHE
Assay type: cell-based
Experimental: Activity was determined using an automated fluorometric imaging assay on a FLIPR instrument (Fluorometric Intensity Plate Reader, Molecular Devices, Sunnyvale, Calif.) (designated FLIPR assay). […] S-9 cells were grown for 24 hours at 37° C. S-9 cells were then loaded with the calcium dye Fluo-3AM (Molecular Probes, Eugene, Oreg.), 4 µM in a phosphate buffered saline (D-PBS) (Invitrogen, Carlsbad, Calif.), for 1 hour at room temperature. After replacement with 25 µl D-PBS, stimulation was performed in the FLIPR instrument and at room temperature by the addition of 25 µl D-PBS supplemented with different stimuli at concentrations corresponding to twice the desired final level.
For dose-responses analysis, stimuli were presented in duplicates at 10 different concentrations ranging from 60 nM to 30 µM. Activities were normalized to the response obtained with 400 mM D-fructose, a concentration that elicits maximum receptor response. EC50s were determined using a non-linear regression algorithm (using a Senomyx, Inc. software), where the Hill slope, bottom asymptotes and top asymptotes were allow to vary.

Compound	EC50 [µM]
CC1CCCC(NC(=O)c2ccnc(Cl)c2)C1C (stereo not drawn) [Example E44, 2-chloro-N-(2,3-dimethylcyclohexyl)isonicotinamide]	1.08
Cc1c(F)c(F)c(C(=O)NC2CCCCC2)c(F)c1F [Example E45, N-cyclohexyl-2,3,5,6-tetrafluoro-4-methylbenzamide]	1.13
Cc1c(F)c(F)c(C(=O)NC2CCCCCCC2)c(F)c1F [Example E46, N-cyclooctyl-2,3,5,6-tetrafluoro-4-methylbenzamide]	1.25
Cc1c(F)c(F)c(C(=O)N[C@H](C)C(C)C)c(F)c1F [Example E47, (R)-2,3,5,6-tetrafluoro-4-methyl-N-(3-methylbutan-2-yl)benzamide]	1.25
COc1c(Cl)ccc(Cl)c1C(=O)NC1CCCC(C)C1C (stereo not drawn) [Example E48, 3,6-dichloro-N-(2,3-dimethylcyclohexyl)-2-methoxybenzamide]	1.29
Cc1cc(C)c(C(=O)NC2CCCC(C)C2C)c(C)c1 (stereo not drawn) [Example E50, N-(2,3-dimethylcyclohexyl)-2,4,6-trimethylbenzamide]	1.41
O=C(NC1CCc2ccccc21)c1cccc(Cl)c1O (stereo not drawn) [Example E51, 3-chloro-N-(2,3-dihydro-1H-inden-1-yl)-2-hydroxybenzamide]	1.49
Cc1ccc2ccccc2c1C(=O)NC1CCCCC1C (stereo not drawn) [Example E52, 2-methyl-N-(2-methylcyclohexyl)-1-naphthamide]	1.52
CC1CCCCC1NC(=O)c1ccc(F)c(Cl)c1 (stereo not drawn) [Example E53, 3-chloro-4-fluoro-N-(2-methylcyclohexyl)benzamide]	1.7
CC1CCCCC1NC(=O)c1ccc(Cl)c(Cl)c1 (stereo not drawn) [Example E54, 3,4-dichloro-N-(2-methylcyclohexyl)benzamide]	1.83
CC1CCCC(NC(=O)c2cncc(Br)c2)C1C (stereo not drawn) [Example E55, 5-bromo-N-(2,3-dimethylcyclohexyl)mcotmamide]	1.89
CC1CCCCC1NC(=O)c1ccnc(Cl)c1 (stereo not drawn) [Example E56, 2-chloro-N-(2-methylcyclohexyl)isonicotinamide]	1.92
Cc1cccc(C(=O)NC2CCCCC2C)c1Cl (stereo not drawn) [Example E57, 2-chloro-3-methyl-N-(2-methylcyclohexyl)benzamide]	1.95
Cc1c(F)c(F)c(C(=O)NC2CCCC2)c(F)c1F [Example E58, N-cyclopentyl-2,3,5,6-tetrafluoro-4-methylbenzamide]	2.23
CC1CCCCC1NC(=O)c1cccc(C(F)(F)F)c1 (stereo not drawn) [Example E59, N-(2-methylcyclohexyl)-3-(trifluoromethyl)benzamide]	2.34
CC1CCC(NC(=O)c2ccc(F)c(C(F)(F)F)c2)CC1 (stereo not drawn) [Example E60, 4-fluoro-N-(4-methylcyclohexyl)-3-(trifluoromethyl)benzamide]	2.37
CC1CCCCC1NC(=O)c1cccc(C(F)(F)F)c1F (stereo not drawn) [Example E61, 2-fluoro-N-(2-methylcyclohexyl)-3-(trifluoromethyl)benzamide]	2.4
CC1CCCCC1NC(=O)c1cncc(Br)c1 (stereo not drawn) [Example E62, 5-bromo-N-(2-methylcyclohexyl)nicotinamide]	2.42
Cc1cccc(C(=O)NC2CCCCC2C)c1C (stereo not drawn) [Example E63, 2,3-dimethyl-N-(2-methylcyclohexyl)benzamide]	2.6
CC1CCCC(NC(=O)c2c(Cl)cccc2Cl)C1C (stereo not drawn) [Example E64, 2,6-dichloro-N-(2,3-dimethylcyclohexyl)benzamide]	2.77
CC1CCCCC1NC(=O)c1ccnc(F)c1 (stereo not drawn) [Example E65, 2-fluoro-N-(2-methylcyclohexyl)isonicotinamide]	2.83
Cc1cc(C)c(C(=O)NC2CCCCC2)c(C)c1 [Example E66, N-cyclohexyl-2,4,6-trimethylbenzamide]	2.86
Cc1ccc(C(=O)NC2CCC(C)CC2)c(O)c1 (stereo not drawn) [Example E67, 2-hydroxy-4-methyl-N-(4-methylcyclohexyl)benzamide]	2.98
Cc1c(F)c(F)c(C(=O)NCC(C)C)c(F)c1F [Example E69, 2,3,5,6-tetrafluoro-N-isobutyl-4-methylbenzamide]	3.19
